Assays:
bedstraw = test: Test B pre/postemergence bedstraw; assay type: in vivo, Galium aparine
How it was run: (§1)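 Herbicidal effect was estimated by eye on a ten-point control scale after plants spent twelve to sixteen days in a greenhouse following soil or foliar treatment. Foliar sprays targeted plants at one to four leaves; all doses were formulated in a non-phytotoxic solvent with surfactant.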

surinam grass = test: Test B pre/postemergence surinam grass; assay type: in vivo, Brachiaria decumbens
How it was run: as §1

cocklebur = test: Test B pre/postemergence cocklebur; assay type: in vivo, Xanthium strumarium
How it was run: as §1

corn = test: Test B pre/postemergence corn; assay type: in vivo, Zea mays
How it was run: as §1

crabgrass = test: Test B pre/postemergence crabgrass; assay type: in vivo, Digitaria sanguinalis
How it was run: as §1

morningglory = test: Test B pre/postemergence morningglory; assay type: in vivo, Ipomoea hederacea
How it was run: as §1

pigweed = test: Test B pre/postemergence pigweed; assay type: in vivo, Amaranthus retroflexus
How it was run: as §1

rape = test: Test B pre/postemergence rape; assay type: in vivo, Brassica napus
How it was run: as §1

soybean = test: Test B pre/postemergence soybean; assay type: in vivo, Glycine max
How it was run: as §1

sugar beet = test: Test B pre/postemergence sugar beet; assay type: in vivo, Beta vulgaris
How it was run: as §1

velvetleaf = test: Test B pre/postemergence velvetleaf; assay type: in vivo, Abutilon theophrasti
How it was run: as §1

wild oat = test: Test B pre/postemergence wild oat; assay type: in vivo, Avena fatua
How it was run: as §1

rice = test: Test B flood test rice; assay type: in vivo, Oryza sativa
How it was run: (§2)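 Plants were grown to the 2-leaf stage before treatment with test chemical, then held in a greenhouse for twelve to sixteen days. Injury was visually rated against untreated controls on a 0–10 scale, where 0 is no effect and 10 is complete control.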

smallflower flatsedge = test: Test B flood test smallflower flatsedge; assay type: in vivo, Cyperus difformis
How it was run: as §2

duck salad = test: Test B flood test duck salad; assay type: in vivo, Heteranthera limosa
How it was run: as §2

bamyardgrass = test: Test B flood test barnyardgrass; assay type: in vivo, Echinochloa crus-galli
How it was run: as §2

[1] = Postemergence, Rate 125 g/ha, scale 0 to 10, 0 is no effect, 10 is complete control
[2] = Preemergence, Rate 250 g/ha, scale of 0 to 10 where 0 is no effect and 10 is complete control
[3] = Preemergence, Rate 500 g/ha, scale of 0 to 10 where 0 is no effect and 10 is complete control
[4] = Rate 62 g/ha, Postemergence, scale 0 to 10 (0 no effect, 10 complete control)
[5] = Preemergence, Rate 62 g/ha, scale of 0 to 10 where 0 is no effect and 10 is complete control
[6] = Rate 500 g/ha, Postemergence, scale 0 to 10, 0 no effect, 10 complete control
[7] = Rate 62 g/ha, headed Pre-emergence (flood test species), scale 0 to 10 (0 no effect, 10 complete control)
[8] = Rate 125 g/ha, Pre-emergence, flood test species, scale 0 to 10 where 0 is no effect and 10 is complete control
[9] = Rate 250 g/ha, Pre-emergence, flood-test species, scale 0 to 10, 0 is no effect, 10 is complete control
[10] = Rate 500 g/ha, Pre-emergence, flood test species, scale 0 to 10 (0 no effect, 10 complete control)

For `Cc1ccccc1-n1c(=O)on(C(=O)N(c2ccc(Cl)cc2)C(C)C2CC2)c1=O` (stereo not drawn) [Compound 330], the “Plant response rating, Bedstraw” value (bedstraw; [1]) was 0, the “Bedstraw plant response rating (0 to 10 scale)” value (bedstraw; Preemergence, Rate 125 g/ha) was 0 and the “Bedstraw plant response rating” value (bedstraw; [2]) was 0. For the same compound, the “Bedstraw plant response rating” value (bedstraw; [3]) was 0, the “Bedstraw plant response rating” value (bedstraw; [4]) was 0 and the “Plant response rating, B. signalgrass” value (surinam grass; [1]) was 0. For the same compound, the “B. signalgrass plant response rating” value (surinam grass; [5]) was 0, the “B. signalgrass plant response rating (0 to 10 scale, 0 is no effect, 10 is complete control)” value (surinam grass; Preemergence, Rate 125 g/ha) was 0 and the “B. signalgrass plant response rating” value (surinam grass; [2]) was 0. The “B. signalgrass plant response rating” value (surinam grass; [3]) was 0, the “B. signalgrass plant response rating” value (surinam grass; [4]) was 0 and the “Plant response rating, B. signalgrass” value (surinam grass; Rate 250 g/ha, Postemergence, scale of 0 to 10 where 0 is no effect and 10 is complete control) was 0. The “Plant response rating, B. signalgrass” value (surinam grass; [6]) was 0, the “Plant response rating, Cocklebur” value (cocklebur; [1]) was 0 and the “Cocklebur plant response rating” value (cocklebur; [5]) was 0. The “Cocklebur plant response rating (0 to 10 scale)” value (cocklebur; Preemergence, Rate 125 g/ha) was 0, the “Cocklebur plant response rating” value (cocklebur; [2]) was 0 and the “Cocklebur plant response rating” value (cocklebur; [3]) was 0. The “Cocklebur plant response rating” value (cocklebur; [4]) was 0, the “Plant response rating, Cocklebur” value (cocklebur; [6]) was 0 and the “Plant response rating, Corn” value (corn; [1]) was 0. The “Corn plant response rating” value (corn; [5]) was 0, the “Corn plant response rating (0 to 10 scale)” value (corn; Preemergence, Rate 125 g/ha) was 0 and the “Corn plant response rating” value (corn; [2]) was 0. The “Corn plant response rating” value (corn; [3]) was 0, the “Corn plant response rating” value (corn; [4]) was 0 and the “Plant response rating, Corn” value (corn; [6]) was 0. The “Plant response rating, Crabgrass” value (crabgrass; [1]) was 0, the “Crabgrass plant response rating” value (crabgrass; [5]) was 0 and the “Crabgrass plant response rating (0 to 10 scale)” value (crabgrass; Preemergence, Rate 125 g/ha) was 0. For the same compound, the “Crabgrass plant response rating” value (crabgrass; [2]) was 0, the “Crabgrass plant response rating” value (crabgrass; [3]) was 0 and the “Crabgrass plant response rating” value (crabgrass; [4]) was 0. For the same compound, the “Plant response rating, Crabgrass” value (crabgrass; [6]) was 0, the “Plant response rating, Morningglory” value (morningglory; [1]) was 0 and the “Morningglory plant response rating” value (morningglory; [5]) was 0. The “Morningglory plant response rating (0 to 10 scale)” value (morningglory; Preemergence, Rate 125 g/ha) was 0, the “Morningglory plant response rating” value (morningglory; [2]) was 0 and the “Morningglory plant response rating” value (morningglory; [3]) was 0. For the same compound, the “Morningglory plant response rating” value (morningglory; [4]) was 0, the “Plant response rating, Morningglory” value (morningglory; [6]) was 4 and the “Plant response rating, Redroot pigweed” value (pigweed; [1]) was 0. For the same compound, the “Redroot pigweed plant response rating” value (pigweed; [5]) was 0, the “Redroot pigweed plant response rating (0 to 10 scale)” value (pigweed; Preemergence, Rate 125 g/ha) was 0 and the “Redroot pigweed plant response rating” value (pigweed; [2]) was 0. For the same compound, the “Redroot pigweed plant response rating” value (pigweed; [3]) was 0, the “Redroot pigweed plant response rating” value (pigweed; [4]) was 0 and the “Plant response rating, Redroot pigweed” value (pigweed; [6]) was 0. For the same compound, the “Plant response rating, Rape” value (rape; [1]) was 0, the “Rape plant response rating” value (rape; [5]) was 0 and the “Rape plant response rating (0 to 10 scale)” value (rape; Preemergence, Rate 125 g/ha) was 0. For the same compound, the “Rape plant response rating” value (rape; [2]) was 0, the “Rape plant response rating” value (rape; [3]) was 0 and the “Rape plant response rating” value (rape; [4]) was 0. For the same compound, the “Plant response rating, Rape” value (rape; [6]) was 0, the “Plant response rating, Soybean” value (soybean; [1]) was 1 and the “Soybean plant response rating” value (soybean; [5]) was 0. For the same compound, the “Soybean plant response rating (0 to 10 scale)” value (soybean; Preemergence, Rate 125 g/ha) was 0, the “Soybean plant response rating” value (soybean; [2]) was 0 and the “Soybean plant response rating” value (soybean; [3]) was 0. For the same compound, the “Soybean plant response rating” value (soybean; [4]) was 1, the “Plant response rating, Soybean” value (soybean; [6]) was 1 and the “Plant response rating, Sugarbeets” value (sugar beet; [1]) was 0. The “Sugarbeets plant response rating” value (sugar beet; [5]) was 0, the “Sugarbeets plant response rating (0 to 10 scale)” value (sugar beet; Preemergence, Rate 125 g/ha) was 0 and the “Sugarbeets plant response rating” value (sugar beet; [2]) was 0. The “Sugarbeets plant response rating” value (sugar beet; [3]) was 0, the “Sugarbeets plant response rating” value (sugar beet; [4]) was 0 and the “Plant response rating, Sugarbeets” value (sugar beet; [6]) was 0. For the same compound, the “Plant response rating, Velvetleaf” value (velvetleaf; [1]) was 0, the “Velvetleaf plant response rating” value (velvetleaf; [5]) was 0 and the “Velvetleaf plant response rating (0 to 10 scale)” value (velvetleaf; Preemergence, Rate 125 g/ha) was 0. The “Velvetleaf plant response rating” value (velvetleaf; [2]) was 0, the “Velvetleaf plant response rating” value (velvetleaf; [3]) was 0 and the “Velvetleaf plant response rating” value (velvetleaf; [4]) was 0. For the same compound, the “Plant response rating, Velvetleaf” value (velvetleaf; [6]) was 0, the “Plant response rating, Wild oats” value (wild oat; [1]) was 0 and the “Wild oats plant response rating” value (wild oat; [5]) was 0. The “Wild oats plant response rating (0 to 10 scale)” value (wild oat; Preemergence, Rate 125 g/ha) was 0, the “Wild oats plant response rating” value (wild oat; [2]) was 0 and the “Wild oats plant response rating” value (wild oat; [3]) was 0. For the same compound, the “Wild oats plant response rating” value (wild oat; [4]) was 0, the “Plant response rating, Wild oats” value (wild oat; [6]) was 0 and the “Rice plant response rating” value (rice; [7]) was 0. For the same compound, the “Rice plant response rating” value (rice; [8]) was 0, the “Rice plant response rating” value (rice; [9]) was 0 and the “Rice plant response rating” value (rice; [10]) was 0. The “S. Flatsedge plant response rating” value (smallflower flatsedge; [7]) was 0, the “S. Flatsedge plant response rating” value (smallflower flatsedge; [8]) was 0 and the “S. Flatsedge plant response rating” value (smallflower flatsedge; [9]) was 0. The “S. Flatsedge plant response rating” value (smallflower flatsedge; [10]) was 0, the “Ducksalad plant response rating” value (duck salad; [7]) was 0 and the “Ducksalad plant response rating” value (duck salad; [8]) was 0. For the same compound, the “Ducksalad plant response rating” value (duck salad; [9]) was 0, the “Ducksalad plant response rating” value (duck salad; [10]) was 0 and the “Barnyardgrass plant response rating” value (bamyardgrass; [7]) was 0. The “Barnyardgrass plant response rating” value (bamyardgrass; [8]) was 0, the “Barnyardgrass plant response rating” value (bamyardgrass; [9]) was 0 and the “Barnyardgrass plant response rating” value (bamyardgrass; [10]) was 0.
